The target in assay [1] is T1, Prostaglandin G/H synthase 2 (Mus musculus, UniProt Q05769).
T1 sequence (Q05769 whole entry): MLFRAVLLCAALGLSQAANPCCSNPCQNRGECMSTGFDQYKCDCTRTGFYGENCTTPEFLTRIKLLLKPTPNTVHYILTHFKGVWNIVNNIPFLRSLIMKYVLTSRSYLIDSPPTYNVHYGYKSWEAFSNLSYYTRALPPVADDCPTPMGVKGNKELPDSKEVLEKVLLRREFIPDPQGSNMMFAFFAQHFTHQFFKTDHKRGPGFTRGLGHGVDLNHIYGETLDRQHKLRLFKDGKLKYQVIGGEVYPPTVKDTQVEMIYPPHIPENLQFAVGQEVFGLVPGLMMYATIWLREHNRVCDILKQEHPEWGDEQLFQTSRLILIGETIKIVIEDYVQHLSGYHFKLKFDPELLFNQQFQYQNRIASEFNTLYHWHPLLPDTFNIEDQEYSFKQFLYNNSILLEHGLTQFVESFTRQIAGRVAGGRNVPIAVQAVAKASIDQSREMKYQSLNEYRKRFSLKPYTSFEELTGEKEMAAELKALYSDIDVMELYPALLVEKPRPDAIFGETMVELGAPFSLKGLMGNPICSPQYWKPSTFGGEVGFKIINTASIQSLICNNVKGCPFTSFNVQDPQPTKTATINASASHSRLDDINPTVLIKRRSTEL

Assay [2] deals with Prostaglandin G/H synthase 1 (Homo sapiens, UniProt P23219). Nature of the assay: IC50 value against Prostaglandin G/H synthase 1 of human platelet rich plasma. Format: cell-free.
Chain of Prostaglandin G/H synthase 1 (Homo sapiens, UniProt P23219) (P23219 whole entry): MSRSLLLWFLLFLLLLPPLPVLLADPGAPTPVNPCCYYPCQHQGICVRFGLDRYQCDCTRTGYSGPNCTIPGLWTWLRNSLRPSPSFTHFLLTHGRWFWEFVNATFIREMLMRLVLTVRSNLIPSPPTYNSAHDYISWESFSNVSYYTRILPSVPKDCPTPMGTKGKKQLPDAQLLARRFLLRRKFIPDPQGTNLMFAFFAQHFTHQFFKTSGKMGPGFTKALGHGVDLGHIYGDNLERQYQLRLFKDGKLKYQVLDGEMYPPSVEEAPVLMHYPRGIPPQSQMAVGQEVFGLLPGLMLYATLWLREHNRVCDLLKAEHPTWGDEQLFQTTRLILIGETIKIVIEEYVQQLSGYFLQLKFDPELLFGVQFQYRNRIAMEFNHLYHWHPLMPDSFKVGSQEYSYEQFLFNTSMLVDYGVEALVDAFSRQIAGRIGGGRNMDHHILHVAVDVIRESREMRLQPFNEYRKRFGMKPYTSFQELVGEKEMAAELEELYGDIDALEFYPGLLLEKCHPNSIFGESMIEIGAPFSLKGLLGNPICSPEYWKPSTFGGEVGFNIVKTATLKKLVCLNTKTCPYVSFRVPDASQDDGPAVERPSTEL
Assay [3] deals with T2, Prostaglandin G/H synthase 2 (Homo sapiens, UniProt P35354).
T2 sequence (P35354 whole entry): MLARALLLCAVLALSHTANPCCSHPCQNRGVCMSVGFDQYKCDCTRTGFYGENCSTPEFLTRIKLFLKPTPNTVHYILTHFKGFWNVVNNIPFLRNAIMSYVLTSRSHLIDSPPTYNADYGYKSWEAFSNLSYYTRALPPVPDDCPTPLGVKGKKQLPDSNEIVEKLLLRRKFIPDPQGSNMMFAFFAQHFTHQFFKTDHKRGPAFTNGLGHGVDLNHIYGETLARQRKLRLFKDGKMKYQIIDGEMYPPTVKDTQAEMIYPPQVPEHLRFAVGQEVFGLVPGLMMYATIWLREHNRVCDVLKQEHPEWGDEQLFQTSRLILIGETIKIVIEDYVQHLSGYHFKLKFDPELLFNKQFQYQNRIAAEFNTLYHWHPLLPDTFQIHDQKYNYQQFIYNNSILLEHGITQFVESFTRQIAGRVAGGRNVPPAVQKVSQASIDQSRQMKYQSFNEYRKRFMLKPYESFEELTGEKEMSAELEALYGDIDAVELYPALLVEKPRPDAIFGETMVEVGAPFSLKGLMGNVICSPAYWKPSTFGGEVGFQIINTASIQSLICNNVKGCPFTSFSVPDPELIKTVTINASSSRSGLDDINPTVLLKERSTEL
Nature of the assay: Inhibition of recombinant human prostaglandin G/H synthase 2 (COX-2).

The target of assay [4] is T3, Prostaglandin G/H synthase 1 (Ovis aries, UniProt P05979).
T3 sequence (P05979 whole entry): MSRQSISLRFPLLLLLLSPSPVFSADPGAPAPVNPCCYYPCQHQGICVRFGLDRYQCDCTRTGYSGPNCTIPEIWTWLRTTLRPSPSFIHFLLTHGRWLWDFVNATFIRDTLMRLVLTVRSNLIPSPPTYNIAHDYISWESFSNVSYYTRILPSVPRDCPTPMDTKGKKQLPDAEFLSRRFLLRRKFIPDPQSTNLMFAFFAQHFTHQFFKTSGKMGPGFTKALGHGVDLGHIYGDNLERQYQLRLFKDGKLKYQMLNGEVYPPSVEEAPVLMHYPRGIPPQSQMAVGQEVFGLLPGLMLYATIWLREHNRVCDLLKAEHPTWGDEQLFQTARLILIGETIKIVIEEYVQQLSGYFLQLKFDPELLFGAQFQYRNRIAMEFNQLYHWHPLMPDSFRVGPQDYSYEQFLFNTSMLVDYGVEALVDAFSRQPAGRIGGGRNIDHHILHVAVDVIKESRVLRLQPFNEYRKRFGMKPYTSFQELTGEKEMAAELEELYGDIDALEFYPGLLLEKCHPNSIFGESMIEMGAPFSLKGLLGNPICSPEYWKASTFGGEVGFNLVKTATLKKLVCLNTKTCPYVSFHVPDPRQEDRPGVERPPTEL
Nature of the assay: IC50 value against ovine Prostaglandin G/H synthase 1.

The target of assay [5] is T1, Prostaglandin G/H synthase 2. As to the kind of experiment: IC50 value against Prostaglandin G/H synthase 2 of murine J774A.1 cell line.

These results are taken from ChEMBL document CHEMBL1132622, “Synthesis, structure-activity relationships, and in vivo evaluations of substituted di-tert-butylphenols as a novel class of potent, selective, and orally active cyclooxygenase-2 inhibitors. 2. 1,3,4- and 1,2,4-thiadiazole series” (J Med Chem, 1999).

A word on the IC50: it is the point on the concentration scale where inhibition reaches its midpoint. In the case of `CC(C)(C)c1cc(-c2nc(=O)s[nH]2)cc(C(C)(C)C)c1O`, the IC50 in assay [1] was determined as 0.018 µM; in assay [2] it was 0.43 µM; in assay [3], 1.1 µM; in assay [4], 83 µM.
As to `CC(C)(C)c1cc(-c2nnc(S)s2)cc(C(C)(C)C)c1O`, the results for the IC50 in assay [1], in assay [2] and in assay [4] were 0.35 µM, more than 20 µM and 20 µM, respectively.
In the case of `CSc1nnc(-c2nc(C(C)(C)C)c(O)c(C(C)(C)C)n2)s1`, the results for the IC50 in assay [1], in assay [2] and in assay [4] were 0.026 µM, 0.2 µM and 0.097 µM, respectively.
Consider `COc1nnc(-c2cc(C(C)(C)C)c(O)c(C(C)(C)C)c2)s1`, for which the IC50 in assay [2] turned out to be 0.2 µM; in assay [3] it was 3 µM; in assay [4] it was 2.6 µM.
As for `COC(=O)CCSc1nnc(-c2cc(C(C)(C)C)c(O)c(C(C)(C)C)c2)s1`, the IC50 in assay [2] was 9.9 µM; in assay [5] it was “Not Active”; in assay [3] it was more than 20 µM; in assay [4] it was more than 20 µM.
For the molecule `CC(C)(C)c1cc(-c2nsc(N)n2)cc(C(C)(C)C)c1O`, the IC50 in assay [3] and in assay [4] was more than 20 µM in each case.
Consider `CC(C)Sc1nnc(-c2cc(C(C)C)c(O)c(C(C)C)c2)s1`, for which the IC50 in assay [3] and in assay [4] was more than 20 µM in each case.
Regarding `CC[S+]([O-])c1nnc(-c2cc(C(C)(C)C)c(O)c(C(C)(C)C)c2)s1` (centres undefined), the IC50 in assay [1] was 0.23 µM; in assay [2], 14.6 µM; in assay [3] it was more than 20 µM; in assay [4], more than 20 µM.
Turning to `CC(C)(C)c1cc(-c2noc(NC#N)n2)cc(C(C)(C)C)c1O`, the IC50 in assay [1] stood at 1.4 µM; in assay [2], 1.2 µM; in assay [3] it was 0.064 µM; in assay [4], 51 µM.
Turning to `CC(C)(C)c1cc(-c2nnc(S)o2)cc(C(C)(C)C)c1O`, the IC50 in assay [1] is 0.92 µM; in assay [2], more than 20 µM; in assay [3] it was 47 µM; in assay [4], more than 20 µM.
With `CNc1nnc(-c2cc(C(C)(C)C)c(O)c(C(C)(C)C)c2)s1`, the IC50 amounted to 0.69 µM in assay [1], 0.3 µM in assay [2], 9.6 µM in assay [3] and 0.52 µM in assay [4].
Take `CC(C)(C)c1cc(-c2nnc(O)s2)cc(C(C)(C)C)c1O`: the IC50 was 0.24 µM in assay [1], 4.1 µM in assay [2], more than 20 µM in assay [3] and more than 20 µM in assay [4].
Consider `COc1c(C(C)(C)C)cc(-c2nnc(SC)s2)cc1C(C)(C)C`, for which the IC50 was determined as 0.012 µM in assay [1], 0.77 µM in assay [2], 0.34 µM in assay [3] and 5.8 µM in assay [4].
On to `CC(C)(C)c1cc(-c2nnc(SCCN)s2)cc(C(C)(C)C)c1O`, for which the IC50 is more than 20 µM in assay [2], “Not Active” in assay [5], 41 µM in assay [3] and 36 µM in assay [4].
For `CC(C)(C)c1cc(-c2nsc(NS(C)(=O)=O)n2)cc(C(C)(C)C)c1O`, the IC50 in assay [3] and in assay [4] was more than 20 µM in each case.
For the molecule `CC(C)(C)c1cc(-c2nnc(N=C(N)N)s2)cc(C(C)(C)C)c1O`, the IC50 in assay [1] is 0.21 µM; in assay [2] it was 2.8 µM; in assay [3], 17 µM; in assay [4] it was 88 µM.
For the molecule `CCCSc1nnc(-c2cc(C(C)(C)C)c(O)c(C(C)(C)C)c2)o1`, the IC50 is 1.9 µM in assay [2], “Not Active” in assay [5], more than 20 µM in assay [3] and more than 20 µM in assay [4].
For `COc1nc(-c2cc(C(C)(C)C)c(O)c(C(C)(C)C)c2)ns1`, the IC50 was found to be 100 µM in assay [3] and 24 µM in assay [4].
As to `CC(C)(C)c1cc(-c2nnc(SCc3ccccc3)s2)cc(C(C)(C)C)c1O`, the IC50 in assay [1], in assay [2], in assay [3] and in assay [4] was more than 20 µM throughout.
As to `CCSc1nnc(-c2cc(C(C)(C)C)c(O)c(C(C)(C)C)c2)s1`, the IC50 worked out at 0.18 µM in assay [1], 3.1 µM in assay [2], 0.14 µM in assay [3] and 100 µM in assay [4].
`CSc1nnc(-c2cc(C(C)(C)C)c(O)c(C(C)(C)C)c2)o1`: the values for the IC50 in assay [1], in assay [2] and in assay [4] were 0.14 µM, 1.2 µM and 12 µM, respectively.
Regarding `CC(C)(C)c1cc(-c2nnc(NC#N)o2)cc(C(C)(C)C)c1O`, the IC50 in assay [1] was found to be 0.39 µM; in assay [2], 5.8 µM; in assay [3], 11 µM.
For the molecule `CC(C)Sc1nnc(-c2cc(C(C)(C)C)c(O)c(C(C)(C)C)c2)s1`, the half-inhibitory concentration (IC50) in assay [1] was 8.5 µM; in assay [2], 13.6 µM; in assay [3], more than 20 µM; in assay [4], more than 20 µM.
Turning to `CC(=O)Nc1nc(-c2cc(C(C)(C)C)c(O)c(C(C)(C)C)c2)ns1`, the IC50 in assay [3] and in assay [4] was more than 20 µM in each case.
Regarding `CSc1nnc(-c2cc(C(C)(C)C)c(O)c(C(C)(C)C)c2)s1`, the IC50 was 0.009 µM in assay [1], 0.18 µM in assay [2], 0.15 µM in assay [3] and 0.51 µM in assay [4].
With `CC(C)(C)c1cc(-c2nsc(N=C(N)N)n2)cc(C(C)(C)C)c1O`, the 50% inhibitory concentration (IC50) in assay [1] was more than 20 µM; in assay [2], 1.7 µM; in assay [3], 27 µM; in assay [4] it was 24 µM.
In the case of `COc1c(C(C)(C)C)cc(-c2nnc(S)s2)cc1C(C)(C)C`, the IC50 in assay [1] was 0.3 µM; in assay [2] it was more than 20 µM; in assay [3] it was 1.5 µM; in assay [4] it was more than 20 µM.
For the molecule `CCCSc1nnc(-c2cc(C(C)C)c(O)c(C(C)C)c2)s1`, the IC50 in assay [1] is 1.5 µM; in assay [2] it was more than 20 µM; in assay [3] it was more than 20 µM; in assay [4] it was more than 20 µM.
In the case of `CCOc1nnc(-c2cc(C(C)(C)C)c(O)c(C(C)(C)C)c2)s1`, the IC50 in assay [1] stood at 0.07 µM; in assay [2], 1.2 µM; in assay [3] it was 6.1 µM; in assay [4] it was 3.4 µM.
In the case of `CC(C)(C)c1cc(-c2nnc(O)o2)cc(C(C)(C)C)c1O`, the IC50 in assay [1] is more than 20 µM; in assay [2] it was 3.2 µM; in assay [3], more than 20 µM; in assay [4], more than 20 µM.
As to `CCSc1nnc(-c2cc(C(C)(C)C)c(O)c(C(C)(C)C)c2)o1`, the IC50 in assay [1] is 0.015 µM; in assay [2], 1.9 µM; in assay [3] it was 6.5 µM; in assay [4], more than 20 µM.
For `CCN(CC)CCSc1nnc(-c2cc(C(C)(C)C)c(O)c(C(C)(C)C)c2)s1`, the IC50 in assay [1] is more than 20 µM; in assay [2], more than 20 µM; in assay [3] it was 19 µM; in assay [4], more than 20 µM.
In the case of `C[S+]([O-])c1nnc(-c2cc(C(C)(C)C)c(O)c(C(C)(C)C)c2)s1` (centres undefined), the IC50 in assay [2], in assay [3] and in assay [4] was more than 20 µM in each case.
With `CC(C)(C)c1cc(-c2nnc(NN)s2)cc(C(C)(C)C)c1O`, the IC50 worked out at 3.7 µM in assay [1], 3.2 µM in assay [2], 1.3 µM in assay [3] and 17 µM in assay [4].
Regarding `CCSc1nnc(-c2cc(C(C)C)c(O)c(C(C)C)c2)s1`, the IC50 in assay [1] was 1.3 µM; in assay [2], more than 20 µM; in assay [3], more than 20 µM; in assay [4], more than 20 µM.
